Here are results for one compound from PMC4393269, “Carvacrol Codrugs: A New Approach in the Antimicrobial Plan” (PLoS ONE, 2015).

The test system of data set [1] is E. coli ATCC 8739. As to the kind of experiment: Broth microdilution MIC/MBC on planktonic cells. It counts as cell-based. The conditions noted are these: Escherichia coli, ATCC8739. As to the method:
(§1) Two Gram-positive (S. aureus ATCC 29213 and S. epidermidis ATCC 35984) and two Gram-negative (E. coli ATCC 8739 and P. aeruginosa ATCC 9027) strains, and one fungal strain (C. albicans ATCC 10231) were used for the detection of antibacterial activity of carvacrol, NAC, Ac-Cys(Allyl)-OH, and carvacrol codrugs 1–10. All tested compounds were dissolved in 20% DMSO to prepare the stock solution (100 mg/mL). The final concentration of DMSO in each well appeared to be not toxic for all studied microorganisms, as confirmed by the solvent control test included in the study.
(§2) The effects of carvacrol codrugs 1–10 and reference compounds on planktonic cells were evaluated by Minimum Inhibitory Concentration (MIC) and Minimum Bactericidal Concentration (MBC) determination using the broth microdilution method according to EUCAST guidelines. Bacterial suspensions, grown in Mueller–Hinton Broth (MHB) at logarithmic phase, were incubated on microtiter plates at a concentration of 5 x 10^5 CFU/mL, with several dilutions (0.07–40 mg/mL) for 24 h at 37°C. The MIC was defined as the lowest concentration of substances giving a complete inhibition of visible growth in comparison with a control well, and the MBC was determined as the lowest concentration at which no bacterial growth occurred on Mueller–Hinton Agar plates.
(§3) Data were obtained from at least three independent experiments performed in duplicate. The susceptibility of the bacterial strains against ciprofloxacin was used as an internal standard during MIC determinations.
In general terms: Dilution methods test growth across graded concentrations, often in twofold steps.

Another data set deals with P. aeruginosa ATCC 9027. As to the kind of experiment: Broth microdilution MIC/MBC on planktonic cells. It counts as cell-based. Conditions: Pseudomonas aeruginosa, ATCC9027. The protocol:
as §1, §2, §3

Data set [2] relates to S. aureus ATCC 29213. As to the kind of experiment: Broth microdilution MIC/MBC on planktonic cells. The class given is cell-based. The conditions noted are these: Staphylococcus aureus, ATCC29213. The protocol: as §1, §2, §3
Data set [3] relates to S. epidermidis ATCC 35984. As to the kind of experiment: Broth microdilution MIC/MBC on planktonic cells. It counts as cell-based. Conditions: Staphylococcus epidermidis, ATCC35984. The protocol:
as §1, §2, §3

For data set [4], the system named is C. albicans ATCC 10231. As to the kind of experiment: Broth microdilution MIC/MFC. The class given is cell-based. The conditions noted are these: Candida albicans, ATCC10231. The protocol:
as §1
The MIC detection of C. albicans ATCC 10231 was performed using the broth microdilution method according to EUCAST guidelines in RPMI 1640 plus 2% glucose with a final inoculum of 1–5 x 10^5 CFU/mL for 24–48 h at 37°C. The Minimum Fungicidal Concentration (MFC) was determined as the lowest concentration of substances at which no fungal growth occurred on Sabouraud agar plates.
as §3

For data set [5], the system named is C. albicans ATCC 10231. The experiment in a line: Transmission electron microscopy. The class given is cell-based. The conditions noted are these: 12.5 mg/mL for 3 h. The text has this: (§4) For transmission electron microscopy, microrganisms were fixed with 2.5% glutaraldehyde in 0.1 M cacodylate buffer, postfixed with 1% OsO4, dehydrated in graded ethanol and embedded in Epon 812. Ultrathin sections (60 to 80 nm) were then mounted on 200-mesh copper grids and stained with uranyl acetate and lead citrate for ultrastructural observation. Sections were photographed using a Philips 268 D electron microscope (FEI).

Data set [6] deals with E. coli ATCC 8739. As to the kind of experiment: Transmission electron microscopy. The class given is cell-based. Conditions: 12.5 mg/mL for 3 h.
Source text: as §4

The subject of data set [7] is S. aureus ATCC 29213. As to the kind of experiment: Transmission electron microscopy. It counts as cell-based. Conditions: 12.5 mg/mL for 3 h.
Source text: as §4

Data set [8] can be described thus: Lipophilicity LogP (experimental). Conditions: mean of three experiments (SD). It counts as physicochemical. The text has this: Table 3 Physicochemical properties of carvacrol codrug 4. | column: Lipophilicity / LogP ^a
A short description of data set [9]: Drug stability in simulated intestinal fluid with pancreatin. The conditions noted are these: 37°C, read-out: t½ (converted). The class given is in vitro ADME. As to the method: (§5) The HPLC system consisted of a Waters 600 HPLC pump (Waters Corporation, Milford, MA, USA), equipped with a Waters 2996 photodiode array detector. The column was a Kinetex RP-C8 column (3.0 x 150 mm, 5 μm). The mobile phase consisted of 0.1% TFA in acetonitrile/0.1% TFA in 95% H2O and 5% acetonitrile 50:50, under isocratic conditions at a flow rate of 1 mL/min. The UV detector was set at a length of 220 nm.
(§6) To assess enzymatic stability, hydrochloric buffer with pepsin (10 or 40 mg/mL) and phosphate buffer with pancreatin (10 or 40 mg/mL) were used. Buffer solution (250 μL) was preincubated at 37°C and 50 μL of drug stock solution (50 μM in ethanol and FASSIF 1:9) were added and shaken at 37°C and 650 rpm. Samples of 100 μL were withdrawn at various times and 100 µL of ice-cold acetonitrile containing 0.5 v/v% formic acid were added to stop enzymatic activity. Samples were vortexed and centrifuged at 2°C and 10000 rpm for 10 min. The drug content in the supernatant was analyzed by HPLC.

A further data set has as its system pancreatin. The description is as above. The class given is in vitro ADME. Conditions: 37°C. The protocol:
as §5, §6

A short description of data set [10]: Kinetics of enzymatic hydrolysis in plasma. It counts as in vitro ADME. Conditions: 37°C; for half-life at 40 µg/mL: pH 7.4, read-out: t½ (converted). As to the method:
as §5
The enzymatic hydrolysis was evaluated in human and rat plasma. […] A volume of 200 μL of this solution was added with pre-heated (37°C) plasma fractions (4 mL) previously diluted with 0.02 M phosphate buffer (pH 7.4) to give a final volume of 5 mL (80% plasma). Aliquots (100 μL) were taken at various times and deproteinized by mixing with 200 μL of 0.01 M HCl in methanol. After centrifugation for 5 min at 5000 × g, 10 μL of the supernatant layer were analysed by chromatography as described above. The amounts of remaining intact compound were plotted as a function of incubation time.

[11] abbreviates: SIF pH 7.4, pancreatin 10 mg/mL.

≈ marks a conversion by molar mass, not a printed value. Where two headings read alike, the source gives them in different places.

Consider `C=CCSC[C@H](NC(C)=O)C(=O)Oc1cc(C(C)C)ccc1C` [codrug 4, N-Ac-Cys(Allyl)-CAR], for which the MIC (commonly the lowest concentration that inhibits growth of the organism) was determined as 2500 µg/mL (≈ 7.45 mM) in the data set with E. coli ATCC 8739 [1] (E. coli ATCC 8739, 24 h at 37°C, read-out: MIC); 5000 µg/mL (≈ 14.9 mM) in the data set on P. aeruginosa ATCC 9027 (P. aeruginosa ATCC 9027, 24 h at 37°C, read-out: MIC); 2500 µg/mL (≈ 7.45 mM) with S. aureus ATCC 29213 [2] (S. aureus ATCC 29213, 24 h at 37°C, read-out: MIC); 2500 µg/mL (≈ 7.45 mM) in data set [3] (S. epidermidis ATCC 35984, 24 h at 37°C, read-out: MIC); 1250 µg/mL (≈ 3.73 mM) in the data set with C. albicans ATCC 10231 [4] (C. albicans ATCC 10231, 24–48 h at 37°C, read-out: MIC). The MBC – broadly, the lowest tested concentration that kills the bacteria rather than only halting them – in the data set with E. coli ATCC 8739 [1] (E. coli ATCC 8739, read-out: MBC) was determined as 2500 µg/mL (≈ 7.45 mM); in the data set on P. aeruginosa ATCC 9027 (P. aeruginosa ATCC 9027, read-out: MBC) it was 10000 µg/mL (≈ 29.8 mM); in the data set with S. aureus ATCC 29213 [2] (S. aureus ATCC 29213, read-out: MBC), 2500 µg/mL (≈ 7.45 mM); in data set [3] (S. epidermidis ATCC 35984, read-out: MBC), 2500 µg/mL (≈ 7.45 mM). Moreover, in the data set on C. albicans ATCC 10231 [4] (C. albicans ATCC 10231, read-out: MFC), the MFC (in general, the smallest concentration meeting the test's criterion for killing the fungus) stood at 1250 µg/mL (≈ 3.73 mM). Further, the “cell morphology by TEM” value in the data set on C. albicans ATCC 10231 [5] is recorded as “disintegration of the membranes”; in the data set with E. coli ATCC 8739 [6], “alteration of outer membrane”; in the data set on S. aureus ATCC 29213 [7] it was “induced abnormal septum formation with irregular features”. In addition, the logP – broadly, the decadic logarithm of the partition coefficient of the neutral form, usually between octanol and water – in [8] came out at 1.21. The half-life at 8.3 µM in data set [9] (simulated intestinal fluid with pancreatin 10 mg/mL, pH 7.4, SIF pH 7.4, pancreatin 10 mg/mL) was 330 min; in data set [9] (simulated intestinal fluid with pancreatin 40 mg/mL, pH 7.4, SIF pH 7.4, pancreatin 40 mg/mL) it was around 60 min. For the same compound, the kobs in the data set with pancreatin (setting [11]) is listed as 0.126 (± 0.003) h^-1; in the data set with pancreatin (SIF pH 7.4, pancreatin 40 mg/mL), 0.83 (± 0.02) h^-1; in data set [10] (80% human plasma), 1.38 (± 0.03) h^-1; in data set [10] (80% rat plasma) it was 1.38 (± 0.05) h^-1. The t½ with pancreatin (setting [11]) is recorded as 5.51 (± 0.13) h. In addition, the half-life at 40 µg/mL in data set [10] (80% human plasma) and in data set [10] (80% rat plasma) was 30 min in each case.
